# Measurements taken from patent US10882844B2, “Compounds useful as immunomodulators” (Bristol-Myers Squibb Company, priority 2016, dated 2021).
# Biological target: PD-1/PD-L1 (Homo sapiens (Human), UniProt Q9NZQ7)
# Experiment: PD-1/PD-L1 Homogenous Time-Resolved Fluorescence (HTRF) binding assay
# Conditions: PD-1-Ig / PD-L1-His HTRF; value given as number; read-out: Range or IC50
# Text: The ability of the compounds of formula (I) to bind to PD-L1 was investigated using a PD-1/PD-L1 Homogenous Time-Resolved Fluorescence (HTRF) binding assay.
# Homogenous Time-Resolved Fluorescence (HTRF) binding assay.
# The interaction of PD-1 and PD-L1 can be assessed using soluble, purified preparations of the extracellular domains of the two proteins. The PD-1 and PD-L1 protein extracellular domains were expressed as fusion proteins with detection tags, for PD-1, the tag was the Fc portion of Immunoglobulin (PD-1-Ig) and for PD-L1 it was the 6 histidine motif (PD-L1-His). All binding studies were performed in an HTRF assay buffer consisting of dPBS supplemented with 0.1% […] bovine serum albumin and 0.05% (v/v) Tween-20. For the h/PD-L1-His binding assay, inhibitors were pre-incubated with PD-L1-His (10 nM final) for 15 m in 4 μl of assay buffer, followed by addition of PD-1-Ig (20 nM final) in 1 μl of assay buffer and further incubation for 15 m. HTRF detection was achieved using europium crypate-labeled anti-Ig (1 nM final) and allophycocyanin (APC) labeled anti-His (20 nM final). Antibodies were diluted in HTRF detection buffer and 5 μl was dispensed on top of the binding reaction. The reaction mixture was allowed to equilibrate for 30 minutes and the resulting signal (665 nm/620 nm ratio) was obtained using an EnVision fluorometer. Additional binding assays were established between the human proteins PD-1-Ig/PD-L2-His (20 & 5 nM, respectively) and CD8O-His/PD-L1-Ig (100 & 10 nM, respectively).
# Recombinant Proteins: Human PD-1 (25-167) with a C-terminal human Fc domain of immunoglobulin G (Ig) epitope tag [hPD-1 (25-167)-3S-IG] and human PD-L1 (18-239) with a C-terminal His epitope tag [hPD-L1(18-239)-TVMV-His] were expressed in HEK293T cells and purified sequentially by ProteinA affinity chromatography and size exclusion chromatography. Human PD-L2-His and CD80-His was obtained through commercial sources.
# The table below lists the IC50 values for representative examples of this disclosure measured in the PD-1/PD-L1 Homogenous Time-Resolved Fluorescence (HTRF) binding assay. Ranges are as follows: A=0.18 nM-0.99 nM; B=1.0 nM-5.0 nM; C=5.01 nM-10.1 nM; D=10.2 nM-200 nM; E=201 nM→10 uM
# Sequence of PD-1/PD-L1 (Q9NZQ7 other isoform, or with tags, fused parts or gaps): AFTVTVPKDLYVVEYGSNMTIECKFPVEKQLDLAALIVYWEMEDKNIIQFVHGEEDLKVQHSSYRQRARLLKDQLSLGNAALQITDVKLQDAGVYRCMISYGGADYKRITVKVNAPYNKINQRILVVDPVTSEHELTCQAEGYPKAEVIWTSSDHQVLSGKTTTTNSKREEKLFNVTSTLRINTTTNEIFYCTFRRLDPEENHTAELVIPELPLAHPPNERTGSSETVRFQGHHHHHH
row,IC50 [nM],SMILES
1,7.2,"CCC[C@H](NCc1cc(Cl)c(OCc2cccc(-c3ccc4oc(N5CCN(C)CC5)nc4c3)c2C)cc1OCc1cncc(C#N)c1)C(=O)O [Example 2012, (S)-2-((5-chloro-2-((5-cyanopyridin-3-yl)methoxy)-4-((2-methyl-3-(2-(4-methylpiperazin-1-yl)benzo[d]oxazol-5-yl)benzyl)oxy)benzyl)amino)pentanoic Acid]"
2,1.7,"Cc1c(COc2cc(OCc3cncc(C#N)c3)c(CN3CCCC[C@H]3C(=O)O)cc2Cl)cccc1-c1ccc2ncc(C3=CCCNC3)nc2c1 [Example 1027, (S)-1-(5-Chloro-2-((5-cyanopyridin-3-yl)methoxy)-4-((2-methyl-3-(3-(1,2,5,6-tetra-hydropyridin-3-yl)quinoxalin-6-yl)benzyl)oxy)benzyl)piperidine-2-carboxylic Acid]"

# Same assay, conditions: PD-1-Ig / PD-L1-His HTRF; value given as range class; read-out: Range or IC50
row,IC50 [nM],SMILES
1,1 to 5,"Cc1c(COc2cc(OCc3cncc(C#N)c3)c(CN3CCCC[C@H]3C(=O)O)cc2Cl)cccc1-c1cc(C)c2oc(C3CCN(C)CC3)nc2c1 [Example 1009, (S)-1-(5-chloro-2-((5-cyanopyridin-3-yl)methoxy)-4-((2-methyl-3-(7-methyl-2-(1-methylpiperidin-4-yl)benzo[d]oxazol-5-yl)benzyl)oxy)benzyl)piperidine-2-carboxylic Acid]"
2,201 to 10000,"Cc1c(COc2cc(OCc3cncc(C#N)c3)c(CN3CCCC[C@H]3C(=O)O)cc2Cl)cccc1-c1ccc2oc(C3CCC(C(=O)O)CC3)nc2c1 (single isomer, unassigned) [Example 1026]"
3,1 to 5,"Cc1c(COc2cc(OCc3cncc(C#N)c3)c(CN3CCCC[C@H]3C(=O)O)cc2Cl)cccc1-c1ccc2oc(C3CCNCC3)nc2c1 [Example 1004, (S)-1-(5-chloro-2-((5-cyanopyridin-3-yl)methoxy)-4-((2-methyl-3-(2-(piperidin-4-yl)benzo[d]oxazol-5-yl)benzyl)oxy)benzyl)piperidine-2-carboxylic Acid]"
4,1 to 5,"Cc1c(COc2cc(OCc3cncc(C#N)c3)c(CN3CCCC[C@H]3C(=O)O)cc2Cl)cccc1-c1ccc2oc(C3CCN(C)CC3)nc2c1C [Example 1010, (S)-1-(5-chloro-2-((5-cyanopyridin-3-yl)methoxy)-4-((2-methyl-3-(4-methyl-2-(1-methylpiperidin-4-yl)benzo[d]oxazol-5-yl)benzyl)oxy)benzyl)piperidine-2-carboxylic Acid]"
5,1 to 5,"Cc1c(COc2cc(OCc3cncc(C#N)c3)c(CN3CCCC[C@H]3C(=O)O)cc2Cl)cccc1-c1ccc2oc(N3CCN(C)CC3)nc2c1 [Example 2007, (S)-1-(5-chloro-2-((5-cyanopyridin-3-yl)methoxy)-4-((2-methyl-3-(2-(4-methylpiperazin-1-yl)benzo[d]oxazol-5-yl)benzyl)oxy)benzyl)piperidine-2-carboxylic Acid]"
6,1 to 5,"Cc1c(COc2cc(OCc3cncc(C#N)c3)c(CN3CCCC[C@H]3C(=O)O)cc2Cl)cccc1-c1ccc2oc(C3CCN(C4CC4)CC3)nc2c1 [Example 1005, (S)-1-(5-chloro-2-((5-cyanopyridin-3-yl)methoxy)-4-((3-(2-(1-cyclopropylpiperidin-4-yl)benzo[d]oxazol-5-yl)-2-methylbenzyl)oxy)benzyl)piperidine-2-carboxylic Acid]"
7,5.01 to 10.1,"Cc1c(COc2cc(OCc3cncc(C#N)c3)c(CN3CCCC[C@H]3C(=O)O)cc2Cl)cccc1-c1ccc2oc(N3C[C@@H]4C[C@H]3CN4C)nc2c1 [Example 2002, (S)-1-(5-chloro-2-((5-cyanopyridin-3-yl)methoxy)-4-((2-methyl-3-(2-((1S,4S)-5-methyl-2,5-diazabicyclo[2.2.1]heptan-2-yl)benzo[d]oxazol-5-yl)benzyl)oxy)benzyl)piperidine-2-carboxylic Acid]"
8,10.2 to 200,"Cc1c(COc2cc(OCc3cncc(C#N)c3)c(CN3CCCC[C@H]3C(=O)O)cc2Cl)cccc1-c1ccc2oc(C3CCN(c4ccccc4)CC3)nc2c1 [Example 1022, (S)-1-(5-chloro-2-((5-cyanopyridin-3-yl)methoxy)-4-((2-methyl-3-(2-(1-phenylpiperidin-4-yl)benzo[d]oxazol-5-yl)benzyl)oxy)benzyl)piperidine-2-carboxylic Acid]"
9,1 to 5,"Cc1c(COc2cc(OCc3cncc(C#N)c3)c(CN(C)[C@@H](CO)C(=O)O)cc2Cl)cccc1-c1ccc2oc(N3CCN(C)CC3)nc2c1 [Example 2016, N-(5-chloro-2-((5-cyanopyridin-3-yl)methoxy)-4-((2-methyl-3-(2-(4-methylpiperazin-1-yl)benzo[d]oxazol-5-yl)benzyl)oxy)benzyl)-N-methyl-L-serine]"
10,1 to 5,"CCC[C@@H](C(=O)O)N(C)Cc1cc(Cl)c(OCc2cccc(-c3ccc4oc(N5CCN(C)CC5)nc4c3)c2C)cc1OCc1cncc(C#N)c1 [Example 2018, (S)-2-((5-chloro-2-((5-cyanopyridin-3-yl)methoxy)-4-((2-methyl-3-(2-(4-methylpiperazin-1-yl)benzo[d]oxazol-5-yl)benzyl)oxy)benzyl)(methyl)amino)pentanoic Acid]"
11,0.18 to 0.99,"Cc1c(COc2cc(OCc3cncc(C#N)c3)c(CN3CCCC[C@H]3C(=O)O)cc2Cl)cccc1-c1ccc2oc(C3CCOCC3)nc2c1 [Example 1017, (S)-1-(5-chloro-2-((5-cyanopyridin-3-yl)methoxy)-4-((2-methyl-3-(2-(tetrahydro-2H-pyran-4-yl)benzo[d]oxazol-5-yl)benzyl)oxy)benzyl)piperidine-2-carboxylic Acid]"

row,SMILES,IC50 [nM]
1,"Cc1c(COc2cc(OCc3cncc(C#N)c3)c(CN3CCCC[C@H]3C(=O)O)cc2Cl)cccc1-c1ccc2oc(C3CC4CCC(C3)N4)nc2c1 (stereo partly drawn) [Example 1006, (2S)-1-(4-((3-(2-(8-azabicyclo[3.2.1]octan-3-yl)benzo[d]oxazol-5-yl)-2-methylbenzyl)oxy)-5-chloro-2-((5-cyanopyridin-3-yl)methoxy)benzyl)piperidine-2-carboxylic Acid]",1 to 5
